Legend:
[1] = tested on: CDK1 phosphorylation in tsFT210 cells; assay: Western blotting of CDK1 phosphorylation status in tsFT210 cells; assay type: cell-based, mouse; details: 5–50 μM, permissive temperature 32 °C
[2] = tested on: tsFT210 cells; assay: Cell cycle analysis of G2-synchronized tsFT210 cells; assay type: cell-based, mouse; details: 5–50 μM, 4 h at 32 °C, compared with the vehicle control
[3] = tested on: ROS level in tsFT210 cells; assay: Measurement of ROS in tsFT210 cells with H2DCFDA; details: 50 μM, 30 min at 32 °C

SMILES	inhibition of the dephosphorylation of CDK1 [1]	effect on G2/M arrest of tsFT210 cells after release [2]	change of H2DCFDA fluorescence intensity (ROS) [3]
CCCCCCCCCCCCCCCC(NCc1ccccc1O)=C1C(=O)OC(CO)C1=O (stereo not drawn) [Compound 10d]	concentration dependently inhibited the dephosphorylation of CDK1	predominantly maintained the G2/M arrest of tsFT210 cells in a concentration-dependent manner	did not induce a significant change
CCCCCCCCCCCCCCCC(NCc1cccc(C)c1)=C1C(=O)OC(CO)C1=O (stereo not drawn) [Compound 8a]	did not inhibit the dephosphorylation of CDK1 even at 50 μM	had little effect on tsFT210 cells	did not induce a significant change
CCCCCCCCCCCCCCC/C(NCc1ccccc1)=C1/C(=O)OC(CO)C1=O (stereo not drawn) [Compound 7]	concentration dependently inhibited the dephosphorylation of CDK1	predominantly maintained the G2/M arrest of tsFT210 cells in a concentration-dependent manner	did not induce a significant change
